# Results published in paper PMC4569258.
# “Also recorded” adds a separate entry of the source. Read-outs that look alike come from different tables or passages of the source.
# Legend:
# [1] = target: T1, aryl hydrocarbon receptor (AhR) (Homo sapiens, UniProt P35869); assay: cell-based
# T1 sequence (P35869 11-848): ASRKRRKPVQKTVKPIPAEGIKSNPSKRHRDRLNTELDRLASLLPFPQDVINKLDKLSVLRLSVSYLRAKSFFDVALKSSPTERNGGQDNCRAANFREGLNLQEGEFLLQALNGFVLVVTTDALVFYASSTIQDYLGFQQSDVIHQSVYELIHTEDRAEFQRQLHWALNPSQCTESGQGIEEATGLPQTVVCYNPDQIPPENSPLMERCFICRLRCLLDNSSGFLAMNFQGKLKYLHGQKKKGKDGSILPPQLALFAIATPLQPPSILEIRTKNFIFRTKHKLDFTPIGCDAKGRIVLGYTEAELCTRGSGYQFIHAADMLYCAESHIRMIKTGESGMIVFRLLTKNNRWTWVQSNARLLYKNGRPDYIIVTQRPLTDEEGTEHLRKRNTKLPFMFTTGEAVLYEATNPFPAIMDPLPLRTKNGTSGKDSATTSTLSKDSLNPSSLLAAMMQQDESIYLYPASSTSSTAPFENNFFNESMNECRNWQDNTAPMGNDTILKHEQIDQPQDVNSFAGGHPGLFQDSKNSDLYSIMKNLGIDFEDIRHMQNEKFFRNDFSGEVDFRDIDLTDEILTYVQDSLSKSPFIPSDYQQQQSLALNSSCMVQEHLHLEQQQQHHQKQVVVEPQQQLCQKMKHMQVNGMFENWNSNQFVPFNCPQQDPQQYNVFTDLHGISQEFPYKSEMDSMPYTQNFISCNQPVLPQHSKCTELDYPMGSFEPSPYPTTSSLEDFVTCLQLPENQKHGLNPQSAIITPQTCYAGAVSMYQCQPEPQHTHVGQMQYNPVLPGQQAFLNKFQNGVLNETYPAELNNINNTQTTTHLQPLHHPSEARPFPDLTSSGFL
# Experimental: (§5) A stably transfected gene reporter cell line AZ-AHR, derived from human hepatoma HepG2 cells transfected with a construct containing several AhR binding sites upstream of a luciferase reporter gene, was used for assessment of AhR transcriptional activity [20].
# (§6) Transcriptional activity of AhR was assessed in human gene reporter cell line AZ-AHR incubated for 24 h with tested compounds.
# (§7) AZ-AHR cells were seeded in 96-well plates and stabilized for 16 h and then incubated for 24 h with enantiopure forms of atorvastatin, rosuvastatin and fluvastatin in concentration ranging from 10^−10 M to 10^−4 M in the absence (agonist mode–upper panels) or presence (antagonist mode–lower panels) of dioxin (TCDD; 5 nM). The vehicle was DMSO (0.1% v/v). After the treatments, cells were lysed and luciferase activity was measured. Treatments were performed in triplicates. Data are expressed as a fold induction of luciferase activity over control cells (agonist mode) or as a percentage of maximal activation attained by TCDD (antagonist mode). The values of EC50 and IC50 from n independent cell passages were calculated where appropriate and the average values are indicated in plots. Representative gene reporter assays are shown.
# [2] = target: T2, glucocorticoid receptor (GR) (Homo sapiens, UniProt P04150); assay: GR gene reporter assay in AZ-GR cells; assay type: cell-based; settings: for IC50 / effect on dexamethasone-inducible transcriptional activity of GR, in words: antagonist mode; for IC50: in presence of DEX 100 nM; for effect on dexamethasone-inducible transcriptional activity of GR, in words: DEX 100 nM
# T2 sequence (P04150 1-777): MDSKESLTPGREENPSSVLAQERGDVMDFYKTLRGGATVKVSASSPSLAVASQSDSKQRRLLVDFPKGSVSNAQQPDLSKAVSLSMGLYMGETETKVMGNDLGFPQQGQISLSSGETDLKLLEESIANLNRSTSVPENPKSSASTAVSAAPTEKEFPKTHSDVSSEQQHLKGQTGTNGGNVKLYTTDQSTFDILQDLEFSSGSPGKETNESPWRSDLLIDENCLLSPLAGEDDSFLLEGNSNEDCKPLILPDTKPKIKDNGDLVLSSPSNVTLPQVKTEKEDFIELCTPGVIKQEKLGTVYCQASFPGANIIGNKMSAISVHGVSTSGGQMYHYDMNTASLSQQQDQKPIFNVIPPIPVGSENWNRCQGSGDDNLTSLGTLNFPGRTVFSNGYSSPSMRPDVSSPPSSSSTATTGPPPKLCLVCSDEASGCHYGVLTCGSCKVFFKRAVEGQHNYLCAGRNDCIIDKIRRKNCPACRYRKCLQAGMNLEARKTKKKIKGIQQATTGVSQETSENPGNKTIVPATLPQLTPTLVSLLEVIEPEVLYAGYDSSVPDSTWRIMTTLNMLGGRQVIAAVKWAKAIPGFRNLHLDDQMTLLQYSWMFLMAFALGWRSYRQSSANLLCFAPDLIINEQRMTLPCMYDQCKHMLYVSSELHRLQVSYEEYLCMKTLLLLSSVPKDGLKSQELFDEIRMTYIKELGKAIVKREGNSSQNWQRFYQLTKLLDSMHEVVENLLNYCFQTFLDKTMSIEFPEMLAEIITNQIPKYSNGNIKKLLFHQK
# Experimental: Transcriptional activity of GR was assessed in human gene reporter cell line AZ-GR incubated for 24 h with tested compounds. […] The vehicle was DMSO (0.1% v/v). […] Treatments were performed in triplicates.
# [3] = target: T3, pregnane X receptor (PXR) (Homo sapiens, UniProt O75469); settings: for effect on rifampicin-inducible PXR transcriptional activity, in words: antagonist mode, RIF 10 μM, 24 h; for rifampicin-inducible luciferase activity, minimum of U-shaped curve: with RIF 10 μM, concentrations range 10^−8 M-10^−6 M
# T3 sequence (O75469 1-434): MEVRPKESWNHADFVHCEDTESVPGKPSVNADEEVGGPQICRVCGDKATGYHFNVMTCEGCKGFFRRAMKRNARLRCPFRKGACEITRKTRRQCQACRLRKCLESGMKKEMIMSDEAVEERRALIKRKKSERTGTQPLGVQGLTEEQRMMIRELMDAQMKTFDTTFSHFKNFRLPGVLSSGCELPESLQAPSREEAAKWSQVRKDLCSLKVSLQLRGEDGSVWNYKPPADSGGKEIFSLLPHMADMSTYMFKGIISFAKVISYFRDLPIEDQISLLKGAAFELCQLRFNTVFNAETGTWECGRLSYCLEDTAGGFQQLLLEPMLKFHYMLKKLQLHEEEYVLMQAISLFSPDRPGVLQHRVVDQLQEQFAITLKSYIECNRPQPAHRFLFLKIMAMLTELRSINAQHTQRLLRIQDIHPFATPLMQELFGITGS
# [4] = target: T1, aryl hydrocarbon receptor (AhR); assay: AhR gene reporter assay in AZ-AHR cells; settings: for IC50: AhR antagonist IC50, antagonist mode, in presence of TCDD 5 nM
# Experimental: as §5, §6, §7
# [5] = MTT cytotoxicity test in AZ-AHR cells; assay type: cell-based; settings: human
# Experimental: (§1) Prior to gene reporter assays, we examined the cytotoxicity of tested compounds in AZ-AHR, AZ-GR and LS180 cell lines. For this purpose, the cells were incubated for 24 h with individual enantiomers of atorvastatin, fluvastatin and rosuvastatin at concentrations ranging from 100 pM to 100 μM. The vehicle was DMSO (0.1% v/v). After the treatment, a conventional MTT test was performed and the values of IC50 were calculated.
# (§2) Fig 2 Cytotoxicity of statin enantiomers in human cancer cell lines. […] After the treatment, a conventional MTT test was performed and absorbance was measured at 540 nm. Treatments were performed in triplicates.
# [6] = MTT cytotoxicity test in AZ-GR cells; assay type: cell-based; settings: human, AZ-GR cells (HeLa-derived GR luciferase reporter cell line)
# Experimental: as §1, §2
# [7] = MTT cytotoxicity test in LS180 cells; assay type: cell-based; settings: human, LS180 colon adenocarcinoma cells
# Experimental: as §1, §2
# CYP3A4 protein = settings: HH59, HH61, HH63; 48 h
# Experimental: (§8) Total protein extracts were prepared from cells cultured on 6-well plates. Cells were washed twice with ice-cold PBS and scraped into 1 ml of PBS. The suspension was centrifuged (4500 rpm/5 min/4°C) and the pellet was resuspended in 150 μl of ice-cold lysis buffer (150 mM NaCl; 10 mM Tris pH 7.2; 0.1% (w/v) SDS; anti-protease cocktail, 1% (v/v) Triton X-100; anti-phosphatase cocktail, 1% (v/v) sodium deoxycholate; 5 mM EDTA). The mixture was vortexed and incubated for 10 min on ice and then centrifuged (15000 rpm/13 min/4°C). Supernatant was collected and the protein content was determined by the Bradford reagent.
# All reagents used for running the simple western by Sally Sue ^TM were obtained from ProteinSimple (San Jose, California) and prepared according to manufacturer’s recommendations (http://www.proteinsimple.com/sally_sue.html). […] Antibody diluent, goat anti-rabbit secondary antibody, and goat anti-mouse secondary antibody were purchased from ProteinSimple. The capillaries, containing a proprietary UV-activated chemical linked reagent and 384-well plates were obtained from ProteinSimple. […] The resulting chemiluminescent signal was detected and quantified by the Compass Software version 2.6.5.0 (ProteinSimple). For quantitative data analysis, the CYPs signals were normalized to β-actin as a loading control.
# CYP2A6 mRNA = settings: for induction of CYP2A6 mRNA: 10 μM
# CYP1A1 protein = CYP1A1 protein (Simple Western) in primary human hepatocytes; assay type: cell-based; settings: 5 nM
# Experimental: (§3) Cells were cultured in serum-free medium.
# CYP1A1 mRNA = CYP1A1 mRNA (qRT-PCR) in primary human hepatocytes; assay type: cell-based; settings: 5 nM
# Experimental: as §3
# (§4) Measurements were performed in triplicates.
# CYP1A2 mRNA = CYP1A2 mRNA (qRT-PCR) in primary human hepatocytes; assay type: cell-based; settings: 5 nM
# Experimental: as §3, §4
# CYP1A2 protein = CYP1A2 protein (Simple Western) in primary human hepatocytes; assay type: cell-based; settings: 5 nM
# Experimental: as §3
# CYP2B6 mRNA = settings: 10 μM
# CYP2B6 protein = settings: 10 μM
# Experimental: as §8
# (§9) All reagents used for running the simple western by Sally Sue ^TM were obtained from ProteinSimple (San Jose, California) and prepared according to manufacturer’s recommendations (http://www.proteinsimple.com/sally_sue.html). […] Antibody diluent, goat anti-rabbit secondary antibody, and goat anti-mouse secondary antibody were purchased from ProteinSimple. The capillaries, containing a proprietary UV-activated chemical linked reagent and 384-well plates were obtained from ProteinSimple. All samples and reagents were prepared according to the recommended ProteinSimple manual. Target proteins were identified using primary antibodies and immunoprobed using a horseradish peroxidase-conjugated secondary antibody and chemiluminescent substrate. The resulting chemiluminescent signal was detected and quantified by the Compass Software version 2.6.5.0 (ProteinSimple). For quantitative data analysis, the CYPs signals were normalized to β-actin as a loading control.
# CYP2A6 protein = settings: 10 μM
# Experimental: as §8, §9
smiles,measurement,setting,value
CC(C)c1nc(N(C)S(C)(=O)=O)nc(-c2ccc(F)cc2)c1C=CC(O)CC(O)CC(=O)O (stereo not drawn) [3S5S-rosuvastatin],EC50,[1],17.5 ± 0.4 µM
same,IC50,[2]; 24 h,> 100 µM
same,"effect on rifampicin-inducible PXR transcriptional activity, in words",[3],U-shaped curve
same,"rifampicin-inducible luciferase activity, minimum of U-shaped curve",[3],60 % of rifampicin value
same,IC50,[4]; 24 h,> 100 µM
same,"efficacy of AhR activation, % of induction attained by TCDD",[4]; agonist mode,about 0.1%
same,"effect on AhR-dependent luciferase activity (agonist mode), in words","[4]; agonist mode, 24 h",dose-dependently increased luciferase activity
CC(C)n1c(C=CC(O)CC(O)CC(=O)O)c(-c2ccc(F)cc2)c2ccccc21 (stereo not drawn) [3S5S-fluvastatin],IC50 at 24 h,[5],> 100 µM
same,EC50,[1],14.7 ± 0.9 µM
same,efficacy: average induction of PXR luciferase activity,"[3]; 100 μM concentration, agonist mode",around 3 fold
same,IC50 at 24 h,[6],> 100 µM
same,IC50,[4]; 24 h,> 100 µM
same,"effect on AhR-dependent luciferase activity (agonist mode), in words","[4]; agonist mode, 24 h",slightly increased luciferase activity
same,IC50 at 24 h,[7],> 100 µM
"CC(C)c1nc(N(C)S(C)(=O)=O)nc(-c2ccc(F)cc2)c1C=CC(O)CC(O)CC(=O)O (stereo not drawn) [3R5R-rosuvastatin, 3R5R- rosuvastatin]",IC50 at 24 h,[5],> 100 µM
same,EC50,[1],> 100 µM
same,EC50,"[2]; agonist mode, 24 h",> 100 µM
same,IC50,[2]; 24 h,> 100 µM
same,"effect on rifampicin-inducible PXR transcriptional activity, in words",[3],U-shaped curve
same,"rifampicin-inducible luciferase activity, minimum of U-shaped curve",[3],60 % of rifampicin value
same,IC50 at 24 h,[6],> 100 µM
same,IC50,[4]; 24 h,> 100 µM
same,IC50 at 24 h,[7],> 100 µM
CC(C)c1nc(N(C)S(C)(=O)=O)nc(-c2ccc(F)cc2)c1C=CC(O)CC(O)CC(=O)O (stereo not drawn) [3R5S-rosuvastatin],"induction of CYP3A4 protein, in words",CYP3A4 protein,significant induction of CYP3A4 protein
same,EC50,[1],> 100 µM
same,"effect on dexamethasone-inducible transcriptional activity of GR, in words",[2]; 24 h,decreased
same,IC50,[2]; 24 h,89.7 ± 12.6 µM
same,"induction of CYP2A6 mRNA, in words","CYP2A6 mRNA; HH59, HH61, HH63, 24 h, 1, 10, 30 μM",weak increase of CYP2A6 mRNA in culture HH61; also recorded: induced CYP2A6 mRNA
same,"effect on rifampicin-inducible PXR transcriptional activity, in words",[3],inverse U-shaped curve
same,IC50,[4]; 24 h,53.5 ± 60.4 µM
same,"effect on TCDD-inducible transcriptional activity of AhR, in words","[4]; antagonist mode, TCDD 5 nM, 24 h",dose-dependently inhibited
C[C@@H]1C[C@H]2[C@@H]3CCC4=CC(=O)C=C[C@]4(C)[C@@]3(F)[C@@H](O)C[C@]2(C)[C@@]1(O)C(=O)CO [dexamethasone],average induction of GR-dependent luciferase activity,"[2]; 100 nM, eight consecutive passages, vs DMSO-treated cells",32 fold
"CC(C)c1nc(N(C)S(C)(=O)=O)nc(-c2ccc(F)cc2)c1C=CC(O)CC(O)CC(=O)O (stereo not drawn) [3S5R-rosuvastatin, 3S5R- rosuvastatin]","induction of CYP3A4 protein, in words",CYP3A4 protein,significant induction of CYP3A4 protein
same,EC50,[1],> 100 µM
same,IC50,[2]; 24 h,> 100 µM
same,"effect on rifampicin-inducible PXR transcriptional activity, in words",[3],not influenced
same,IC50,[4]; 24 h,> 100 µM
"Clc1cc2c(cc1Cl)Oc1cc(Cl)c(Cl)cc1O2 [TCDD, 2,3,7,8-tetrachlorodibenzo-p-dioxin]",induction of CYP1A1 protein,"CYP1A1 protein; culture HH59, 48 h",35 fold
same,induction of CYP1A1 protein,"CYP1A1 protein; culture HH61, 48 h",220 fold
same,induction of CYP1A1 protein,"CYP1A1 protein; culture HH63, 48 h",35 fold
same,induction of CYP1A1 mRNA,"CYP1A1 mRNA; culture HH59, 24 h",98 fold
same,induction of CYP1A1 mRNA,"CYP1A1 mRNA; culture HH61, 24 h",339 fold
same,induction of CYP1A1 mRNA,"CYP1A1 mRNA; culture HH63, 24 h",278 fold
same,induction of CYP1A2 mRNA,"CYP1A2 mRNA; culture HH59, 24 h",110 fold
same,induction of CYP1A2 mRNA,"CYP1A2 mRNA; culture HH61, 24 h",143 fold
same,induction of CYP1A2 mRNA,"CYP1A2 mRNA; culture HH63, 24 h",45 fold
same,average induction of AhR-dependent luciferase activity,"[4]; 5 nM, eight consecutive passages, vs DMSO-treated cells",1107 fold
same,induction of CYP1A2 protein,"CYP1A2 protein; culture HH59, 48 h",19 fold
same,induction of CYP1A2 protein,"CYP1A2 protein; culture HH61, 48 h",83 fold
same,induction of CYP1A2 protein,"CYP1A2 protein; culture HH63, 48 h",50 fold
CC(C)c1c(C(=O)Nc2ccccc2)c(-c2ccccc2)c(-c2ccc(F)cc2)n1CC[C@@H](O)C[C@@H](O)CC(=O)O [3R5R-atorvastatin],"effect on dexamethasone-inducible transcriptional activity of GR, in words",[2]; 24 h,decreased
CO[C@H]1/C=C/O[C@@]2(C)Oc3c(C)c(O)c4c(O)c(c(/C=N/N5CCN(C)CC5)c(O)c4c3C2=O)NC(=O)/C(C)=C\C=C\[C@H](C)[C@H](O)[C@@H](C)[C@@H](O)[C@@H](C)[C@H](OC(C)=O)[C@@H]1C [rifampicin],induction of CYP2B6 mRNA,"CYP2B6 mRNA; culture HH59, 24 h",5.8 fold
same,induction of CYP2B6 mRNA,"CYP2B6 mRNA; culture HH61, 24 h",16 fold
same,induction of CYP2B6 mRNA,"CYP2B6 mRNA; culture HH63, 24 h",6.9 fold
same,induction of CYP2A6 mRNA,"CYP2A6 mRNA; culture HH59, 24 h",2.4 fold
same,induction of CYP2A6 mRNA,"CYP2A6 mRNA; culture HH61, 24 h",5.2 fold
same,induction of CYP2A6 mRNA,"CYP2A6 mRNA; culture HH63, 24 h",7.1 fold
same,induction of CYP2B6 protein,"CYP2B6 protein; culture HH59, 48 h",8.4 fold
same,induction of CYP2B6 protein,"CYP2B6 protein; culture HH61, 48 h",5.9 fold
same,induction of CYP2B6 protein,"CYP2B6 protein; culture HH63, 48 h",7.7 fold
same,induction of CYP2A6 protein,"CYP2A6 protein; culture HH59, 48 h",4.8 fold
same,induction of CYP2A6 protein,"CYP2A6 protein; culture HH61, 48 h",7.3 fold
same,induction of CYP2A6 protein,"CYP2A6 protein; culture HH63, 48 h",2.3 fold
